Holding throughout (assay type): cell-based
For assay [1], the target named is T1, human SGLT2 protein modified to have LeuGluSerArgGlyProVal added to the carboxy-terminal final residue (Homo sapiens, UniProt P31639).
T1 construct: expressed in transfected cells; host or cells: CHO-K1
T1 sequence (P31639 with tags, fused parts or gaps): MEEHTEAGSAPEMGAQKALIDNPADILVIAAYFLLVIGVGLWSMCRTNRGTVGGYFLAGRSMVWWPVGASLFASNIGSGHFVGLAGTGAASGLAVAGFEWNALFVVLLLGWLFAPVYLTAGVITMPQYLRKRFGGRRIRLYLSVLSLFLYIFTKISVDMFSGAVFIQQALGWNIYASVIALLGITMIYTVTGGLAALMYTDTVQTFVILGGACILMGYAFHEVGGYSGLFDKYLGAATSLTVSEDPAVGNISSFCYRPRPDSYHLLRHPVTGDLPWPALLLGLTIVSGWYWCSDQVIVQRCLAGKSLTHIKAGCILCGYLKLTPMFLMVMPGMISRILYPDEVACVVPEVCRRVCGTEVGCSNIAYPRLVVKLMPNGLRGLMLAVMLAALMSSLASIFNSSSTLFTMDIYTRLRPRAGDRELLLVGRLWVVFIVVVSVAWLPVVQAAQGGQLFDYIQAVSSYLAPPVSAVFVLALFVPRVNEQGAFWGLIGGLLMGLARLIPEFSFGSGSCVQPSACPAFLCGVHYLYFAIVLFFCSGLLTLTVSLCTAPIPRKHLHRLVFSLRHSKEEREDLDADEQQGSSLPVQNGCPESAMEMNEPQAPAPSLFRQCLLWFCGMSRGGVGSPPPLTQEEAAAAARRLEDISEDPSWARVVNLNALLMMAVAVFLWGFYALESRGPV
Nature of the assay: Inhibition test for sodium-dependent sugar uptake in CHO-K1 cells stably expressing human SGLT2, Method A. The settings on record: uptake 37° C., 60 minutes, read-out: IC50 for hSGLT2 Method A. On the procedure: (§1) (2) Creation of CHO-K1 Cells Stably Expressing Human SGLT2
Method A (described in WO2007/136116): A plasmid vector expressing human SGLT2 protein modified to have LeuGluSerArgGlyProVal added to the carboxy-terminal final residue was transfected into CHO-K1 cells using lipofectamine 2000 (Invitrogen). The cells were cultured in the presence of 500 μg/mL hygromycin B to select resistant strains, followed by screening in the system shown below using sugar uptake capacity as an indicator to obtain SGLT2-expressing cells.
(§2) (3) Inhibition Test for Sodium-Dependent Sugar Uptake in Stably Expressing Cells
(§3) The stably expressing cells prepared above were used in the following test.
(§4) Pretreatment buffer (140 mM choline chloride, 2 mM KCl, 1 mM CaCl2, 1 mM MgCl2, 10 mM HEPES/5 mM Tris, pH 7.4) was added in a volume of 200 μL to the cells stably expressing SGLT1 or 2 mL for Method A and 200 μL for Method B to the cells stably expressing SGLT2, followed by incubation for 20 minutes. The pretreatment buffer was removed and replaced by uptake buffer containing a test compound (1 mM methyl α-D-glucopyranoside (containing [^14C]methyl α-D-glucopyranoside), 140 mM NaCl, 2 mM KCl, 1 mM CaCl2, 1 mM MgCl2, 10 mM HEPES/5 mM Tris, pH 7.4) in a volume of 75 μL for SGLT1 and SGLT2 in Method B or 200 μL for SGLT2 in Method A. Uptake reaction was performed at 37° C. for 30 minutes (SGLT1) or 60 minutes (SGLT2). After the reaction, the cells were washed twice with washing buffer (10 mM methyl α-D-glucopyranoside, 140 mM choline chloride, 2 mM KCl, 1 mM CaCl2, 1 mM MgCl2, 10 mM HEPES/5 mM Tris, pH 7.4) in a volume of 200 μL for SGLT1 and SGLT2 in Method B or 2 mL for SGLT2 in Method A, and then dissolved in a 0.25 M NaOH solution (75 μL for SGLT1 and SGLT2 in Method B or 400 μL for SGLT2 in Method A). A liquid scintillator (Perkin Elmer) was added and mixed well with each sample, followed by measurement of radioactivity using a β-ray analyzer. For the control group, uptake buffer containing no test compound was prepared. Moreover, another uptake buffer containing choline chloride instead of NaCl was also prepared for basal uptake.
(§5) For determination of IC50 values, test compounds prepared at 6 appropriate concentrations were used and their concentrations required for 50% inhibition of the amount of sugar uptake (IC50 values) were calculated relative to the amount of sugar uptake in the control group (100%).

The next assay addresses T2, human SGLT1 (Homo sapiens, UniProt P13866).
T2 construct: expressed in transfected cells; host or cells: CHO-K1
T2 sequence (P13866 1-664): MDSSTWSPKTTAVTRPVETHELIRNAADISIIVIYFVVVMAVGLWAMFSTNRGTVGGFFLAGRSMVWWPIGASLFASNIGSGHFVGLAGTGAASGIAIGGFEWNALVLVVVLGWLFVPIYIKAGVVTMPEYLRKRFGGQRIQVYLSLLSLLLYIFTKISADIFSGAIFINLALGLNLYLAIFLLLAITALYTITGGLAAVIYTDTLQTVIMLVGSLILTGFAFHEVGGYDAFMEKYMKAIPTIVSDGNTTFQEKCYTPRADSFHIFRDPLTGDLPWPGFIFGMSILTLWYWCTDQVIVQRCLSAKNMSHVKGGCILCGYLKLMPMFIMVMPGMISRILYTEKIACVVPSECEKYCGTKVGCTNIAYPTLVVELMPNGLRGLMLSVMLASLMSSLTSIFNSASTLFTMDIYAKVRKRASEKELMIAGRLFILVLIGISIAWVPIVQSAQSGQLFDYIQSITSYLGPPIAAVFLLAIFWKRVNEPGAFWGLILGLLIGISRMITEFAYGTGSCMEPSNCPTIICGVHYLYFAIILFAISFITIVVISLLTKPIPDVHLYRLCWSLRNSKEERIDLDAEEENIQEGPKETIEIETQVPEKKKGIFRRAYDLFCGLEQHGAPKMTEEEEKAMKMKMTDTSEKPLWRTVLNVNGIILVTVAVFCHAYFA
Nature of the assay: Inhibition test for sodium-dependent sugar uptake in CHO-K1 cells stably expressing human SGLT1. Conditions: [14C]methyl α-D-glucopyranoside uptake, 37° C., 30 minutes, read-out: IC50 for hSGLT1. Here is the method: (1) Creation of CHO-K1 Cells Stably Expressing Human SGLT1
A plasmid vector expressing human SGLT1 protein was transfected into CHO-K1 cells using lipofectamine 2000 (Invitrogen). The cells were cultured in the presence of 500 μg/mL geneticin to select resistant strains, followed by screening in the system shown below using sugar uptake capacity as an indicator to obtain SGLT1-expressing cells.
as §2, §3, §4, §5

The next assay addresses T3, human SGLT2 (Homo sapiens, UniProt P31639).
T3 construct: expressed in transfected cells; host or cells: CHO-K1
T3 sequence (P31639 1-672): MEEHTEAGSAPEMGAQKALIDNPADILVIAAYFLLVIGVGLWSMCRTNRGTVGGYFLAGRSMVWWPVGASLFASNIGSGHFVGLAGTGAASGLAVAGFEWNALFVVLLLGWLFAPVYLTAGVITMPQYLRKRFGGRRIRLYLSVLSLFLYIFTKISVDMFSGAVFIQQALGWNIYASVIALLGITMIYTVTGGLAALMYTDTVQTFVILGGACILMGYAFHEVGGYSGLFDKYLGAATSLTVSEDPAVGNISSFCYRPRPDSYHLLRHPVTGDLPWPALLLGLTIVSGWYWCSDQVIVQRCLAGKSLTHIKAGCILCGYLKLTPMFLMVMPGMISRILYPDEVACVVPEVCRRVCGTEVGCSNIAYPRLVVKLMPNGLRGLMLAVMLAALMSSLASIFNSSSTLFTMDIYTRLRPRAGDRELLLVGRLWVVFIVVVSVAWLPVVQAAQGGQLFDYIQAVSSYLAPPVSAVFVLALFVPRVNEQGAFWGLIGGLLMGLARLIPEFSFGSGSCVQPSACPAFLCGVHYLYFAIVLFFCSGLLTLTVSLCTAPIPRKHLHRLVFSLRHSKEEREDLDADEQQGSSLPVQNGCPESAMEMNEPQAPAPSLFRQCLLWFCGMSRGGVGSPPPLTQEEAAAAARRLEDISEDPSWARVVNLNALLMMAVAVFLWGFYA
Nature of the assay: Inhibition test for sodium-dependent sugar uptake in CHO-K1 cells stably expressing human SGLT2, Method B. The settings on record: uptake 37° C., 60 minutes, read-out: IC50 for hSGLT2 Method B. Here is the method:
as §1
Method B: A plasmid vector expressing human SGLT2 protein was transfected into CHO-K1 cells using lipofectamine LTX (Invitrogen). The cells were cultured in the presence of 1000 μg/mL geneticin to select resistant strains, followed by screening in the system shown below using sugar uptake capacity as an indicator to obtain SGLT2-expressing cells.
as §2, §3, §4, §5

The structures appear in SMILES notation.

As usually defined, the IC50 is the concentration that gives 50% inhibition. Consider `Cc1cc(/C=C/C(C)(C)C(=O)NC(C)(C)C(=O)N2CCNCC2)ccc1Cc1cc([C@@H]2O[C@H](CO)[C@@H](O)[C@H](O)[C@H]2O)c(O)cc1C(C)C` [Example 2-2], for which the IC50 in assay [1] turned out to be 971 nM; on human SGLT1, 30 nM; on human SGLT2, 28 nM.
Regarding `Cc1cc(/C=C/C(C)(C)C(=O)NC(C)(C)C(=O)N2CCN(C)CC2)ccc1Cc1cc([C@@H]2O[C@H](CO)[C@@H](O)[C@H](O)[C@H]2O)c(O)cc1C(C)C` [Example 3-2], the IC50 in assay [1] came out at 1720 nM; on human SGLT1, 35 nM; at human SGLT2, 81 nM.
Regarding `CCN1CCN(C(=O)C(C)(C)NC(=O)C(C)(C)/C=C/c2ccc(Cc3cc([C@@H]4O[C@H](CO)[C@@H](O)[C@H](O)[C@H]4O)c(O)cc3C(C)C)c(C)c2)CC1` [Example 4-2], the figures for the half-inhibitory concentration (IC50) (in assay [1]; at human SGLT1; on human SGLT2) were 1640 nM, 46 nM and 76 nM, respectively.
For `COc1cc(C(C)C)c(Cc2ccc(/C=C/C(C)(C)C(=O)NC(C)(C)C(=O)NCCN(C)C)cc2C)cc1[C@@H]1O[C@H](CO)[C@@H](O)[C@H](O)[C@H]1O` [Example 7-2], the IC50 in assay [1] stood at 11100 nM; at human SGLT1 it was 46 nM.
`COc1cc(C(C)C)c(Cc2ccc(/C=C/C(C)(C)C(=O)NC(C)(C)C(=O)NCCN)cc2C)cc1[C@@H]1O[C@H](CO)[C@@H](O)[C@H](O)[C@H]1O` [Example 8-3]: the IC50 in assay [1] came out at 15700 nM; at human SGLT1 it was 50 nM; on human SGLT2, 476 nM.
The like results for `COc1cc(C(C)C)c(Cc2ccc(/C=C/C(C)(C)C(=O)NC(C)(C)C(=O)N3CCNCC3)cc2C)cc1[C@@H]1O[C@H](CO)[C@@H](O)[C@H](O)[C@H]1O` [Example 9-2] were, in that order, 7230 nM, 34 nM and 200 nM.
For the compound `COc1cc(C(C)C)c(Cc2ccc(/C=C/C(C)(C)C(=O)NC(C)(C)C(=O)N3CCN(C)CC3)cc2C)cc1[C@@H]1O[C@H](CO)[C@@H](O)[C@H](O)[C@H]1O` [Example 10-2], the IC50 turned out to be 14900 nM in assay [1], 55 nM on human SGLT1 and 281 nM at human SGLT2.
Turning to `CCN1CCN(C(=O)C(C)(C)NC(=O)C(C)(C)/C=C/c2ccc(Cc3cc([C@@H]4O[C@H](CO)[C@@H](O)[C@H](O)[C@H]4O)c(OC)cc3C(C)C)c(C)c2)CC1` [Example 11-2], the IC50 in assay [1] is 9750 nM; on human SGLT1, 59 nM; on human SGLT2 it was 546 nM.
Take `COc1cc(C(C)C)c(Cc2ccc(/C=C/C(C)(C)C(=O)NC(C)(C)C(=O)N3CCC(N(C)C)CC3)cc2C)cc1[C@@H]1O[C@H](CO)[C@@H](O)[C@H](O)[C@H]1O` [Example 12-2]: the results for the half-maximal inhibitory concentration (IC50) (in assay [1]; at human SGLT1; on human SGLT2) were 4950 nM, 70 nM and 113 nM, respectively.
Regarding `COc1cc(C(C)C)c(Cc2ccc(/C=C/C(C)(C)C(=O)NC(C)(C)C(=O)NC3CCNCC3)cc2C)cc1[C@@H]1O[C@H](CO)[C@@H](O)[C@H](O)[C@H]1O` [Example 14-2], the values for the IC50 (in assay [1]; on human SGLT1; on human SGLT2) were 2390 nM, 72 nM and 82 nM, respectively.
As for `COc1cc(C(C)C)c(Cc2ccc(/C=C/C(C)(C)C(=O)NC(C)(C)C(=O)N3CCNCC3)cc2)cc1[C@@H]1O[C@H](CO)[C@@H](O)[C@H](O)[C@H]1O` [Example 16-2], the IC50 in assay [1] worked out at 1020 nM; at human SGLT1, 38 nM; at human SGLT2, 17 nM.
The like results for `COc1cc(C(C)C)c(Cc2ccc(/C=C/C(C)(C)C(=O)NC(C)(C)C(=O)N3CCN(C)CC3)cc2)cc1[C@@H]1O[C@H](CO)[C@@H](O)[C@H](O)[C@H]1O` [Example 17-2] were, in that order, 979 nM, 42 nM and 26 nM.

For the origin of these results see patent US8466113B2, “4-isopropylphenyl glucitol compounds as SGLT1 inhibitors” (Taisho Pharmaceutical Co., Ltd., priority 2009, dated 2013).
